biological target: T1, Human ATX protein (Homo sapiens, UniProt Q13822); assay: ATX biochemical FRET assay with FS-3 substrate; details: FRET substrate FS-3 2 μM, ATX 1.0 μg/mL, 30 minutes pre-incubation, 2 hours at room temperature; read-out: IC50
T1 construct: made in house
Text: ATX (Autotaxin) is a 125 KDa glycoprotein with lysophospholipase D (LPLD) activity that generates the bioactive lipid lysophosphatidic acid (LPA) from lysophosphatidylcholine (LPC). The ATX biochemical assay utilizes a FRET (fluorescence resonance energy transfer) technology platform. The fluorescence signal of FRET substrate FS-3 is quenched due to intra-molecular FRET of a fluorophore to a non-fluorescing quencher (Ferguson, C. G., et al., Org Lett. 2006 May 11; 8(10): 2023-2026, which is incorporated by reference in its entirety). ATX catalyzes the hydrolysis of the substrate which separates the dabsyl quencher from the fluorescein reporter, which becomes fluorescent. The reaction is monitored by a SpectraMax M5 (Molecular Devices, Sunnyvale, Calif.) with at excitation wavelength 485 nm and emission wavelength […].
Fatty acid free-BSA (Sigma A8806): 10 mg/mL in H2O, stored at 4° C.
2×ATX assay buffer: 100 mM Tris, 280 mM NaCl, 10 mM KCl, 2 mM CaCl2, 2 mM MgCl2, pH 7.4.
Human ATX protein: expressed and purified in house. Stored at −80° C.
Substrate FS-3 (Echelon, L-2000): 100 μg in 77.74 μL H2O (1 mM stock), stored at −20° C.
384-well flat bottom plates—Corning #3575.
Compound dilution—All compounds were provided at 10 mM in 100% DMSO. In the first well, 2 μL of 10 mM compound was added to 78 μL of DMSO (1:40 dilution). In subsequent wells 3-fold dilution (total 10 dilutions) were performed.
1×ATX assay buffer was made up with a final concentration of 1 mg/mL fatty acid free-BSA using 2×ATX assay buffer, 10 mg/ml fatty acid free-BSA and ddH2O.
ATX protein was diluted with 1×ATX assay buffer to a concentration of 1.32 μg/mL (1.32×). 38 μL was added per well to the assay plate. The final concentration of ATX in the reaction as 1.0 μg/mL.
2 μL per well of compounds was transferred to provide the desired concentration. The plate was centrifuged, then incubated at room temperature for 30 minutes on the shaker.
Then, 10 μL was added per well to the assay plate. […] The plate was centrifuged. The plate was kept shaking at room temperature for 2 hours. Because FS-3 substrate is light sensitive, plates were kept covered and protected from light.
Fluorescence was measured using SpectraMax M5 (excitation at 485 nm/emission at 538 nm, top read).

IC50 [nM] | Compound
≤ 250 | CC(N[C@H]1C[C@@H](C(=O)O)C1(C)C)c1ccc2ccc(O[C@H]3CC[C@@H](C)CC3)c(Cl)c2c1 (relative stereo) [Example 93, Cis-3-((1-(8-chloro-7-((cis-4-methylcyclohexyl)oxy)naphthalen-2-yl)ethyl)amino)-2,2-dimethylcyclobutanecarboxylic acid]
≤ 250 | CC1(C)[C@@H](NCc2ccc3ccc(O[C@H]4CC[C@@H](C)CC4)c(C#N)c3c2)C[C@H]1C(=O)O (relative stereo) [Example 99, Cis-3-(((8-cyano-7-((cis-4-methylcyclohexyl)oxy)naphthalen-2-yl)methyl)amino)-2,2-dimethylcyclobutanecarboxylic acid]
≤ 100 | O=C(O)C[C@H]1CCCN(Cc2ccc3ccc(O[C@H]4CC[C@@H](C(F)(F)F)CC4)c(C(F)(F)F)c3c2)C1 [Example 7, 2-((R)-1-((8-(trifluoromethyl)-7-((cis-4-(trifluoromethyl)cyclohexyl)oxy)naphthalen-2-yl)methyl)piperidin-3-yl)acetic acid]
≤ 250 | CC1(C)C(NCc2ccc3ccc(O[C@H]4CC[C@@H](C(F)(F)F)CC4)c(C(F)(F)F)c3c2)CC1C(=O)O (stereo partly drawn) [Example 8, 2,2-dimethyl-3-(((8-(trifluoromethyl)-7-((cis-4-(trifluoromethyl)cyclohexyl)oxy)-naphthalen-2-yl)methyl)amino)cyclobutanecarboxylic acid]
≤ 250 | CC(c1ccc2ccc(O[C@H]3CC[C@@H](C(F)(F)F)CC3)c(C(F)(F)F)c2c1)N1CCC[C@H](CC(=O)O)C1 (stereo partly drawn) [Example 21, ((R)-1-{1-[8-trifluoromethyl-7-(4-trifluoromethyl-cyclohexyloxy)-naphthalen-2-yl]-ethyl}-piperidin-3-yl)-acetic acid]

same assay, conditions: IC50, FRET substrate FS-3 2 μM, ATX 1.0 μg/mL, 30 minutes pre-incubation, 2 hours at room temperature

Compound | IC50 [nM]
CCC(c1ccc2ccc(O[C@H]3CC[C@@H](C)CC3)c(C(F)(F)F)c2c1)N1C2CCC1CC(C(=O)O)C2 (relative stereo) [Example 18, 8-(1-(7-((cis-4-methylcyclohexyl)oxy)-8-(trifluoromethyl)naphthalen-2-yl)propyl)-8-azabicyclo[3.2.1]octane-3-carboxylic acid] | ≤ 250
O=C(O)C1CC2CCC(C1)N2C(=O)c1ccc2ccc(O[C@H]3CC[C@@H](C(F)(F)F)CC3)c(C(F)(F)F)c2c1 (relative stereo) [Example 23, 8-(8-(trifluoromethyl)-7-((cis-4-(trifluoromethyl)cyclohexyl)oxy)-2-naphthoyl)-8-azabicyclo[3.2.1]octane-3-carboxylic acid] | ≤ 250
C[C@H]1CC[C@@H](Oc2ccc3ccc(C(=O)N4C5CCC4CC(C(=O)O)C5)cc3c2C(F)(F)F)CC1 (relative stereo) [Example 24, 8-[7-(cis-4-methyl-cyclohexyloxy)-8-trifluoromethyl-naphthalene-2-carbonyl]-8-azabicyclo[3.2.1]octane-3-carboxylic acid] | ≤ 250
CC[C@H]1CC[C@@H](Oc2ccc3ccc(CN4C5CCCC4CC(C(=O)O)C5)cc3c2Cl)CC1 (relative stereo) [Example 49, 9-((8-chloro-7-((cis-4-ethylcyclohexyl)oxy)naphthalen-2-yl)methyl)-9-azabicyclo[3.3.1]nonane-3-carboxylic acid] | ≤ 100
C[C@H](c1ccc2ccc(O[C@H]3CC[C@@H](C)CC3)c(C(F)(F)F)c2c1)N1C2CCCC1CC(C(=O)O)C2 (single isomer, unassigned) [Example 5b] | ≤ 100
C[C@H]1CC[C@@H](Oc2ccc3ccc(CN4C5CCCC4CC(C(=O)O)C5)cc3c2C(F)(F)F)CC1 (stereo partly drawn) [Example 2, 9-[7-(cis-4-methyl-cyclohexyloxy)-8-trifluoromethyl-naphthalen-2-ylmethyl]-9-aza-bicyclo[3.3.1]nonane-3-carboxylic acid] | ≤ 100
C[C@H]1CC[C@@H](Oc2ccc3ccc(CN4C5CCC4CC(C(=O)O)C5)cc3c2C(F)(F)F)CC1 (stereo partly drawn) [Example 3, 8-[7-(cis-4-methyl-cyclohexyloxy)-8-trifluoromethyl-naphthalen-2-ylmethyl]-8-aza-bicyclo[3.2.1]octane-3-carboxylic acid] | ≤ 100
CC(c1ccc2ccc(O[C@H]3CC[C@@H](C)CC3)c(C(F)(F)F)c2c1)N1C2CCCC1CC(C(=O)O)C2 (stereo partly drawn) [Example 5, 9-{1-[7-(cis-4-methyl-cyclohexyloxy)-8-trifluoromethyl-naphthalen-2-yl]-ethyl}-9-aza-bicyclo[3.3.1]nonane-3-carboxylic acid] | ≤ 100
CC(c1ccc2ccc(O[C@H]3CC[C@@H](C(F)(F)F)CC3)c(C(F)(F)F)c2c1)N1C2CCCC1CC(C(=O)O)C2 (stereo partly drawn) [Example 10, 9-{1-[7-(cis-4-trifluoromethyl-cyclohexyloxy)-8-trifluoromethyl-naphthalen-2-yl]-ethyl}-9-aza-bicyclo[3.3.1]nonane-3-carboxylic acid] | ≤ 100
CC(c1ccc2ccc(O[C@H]3CC[C@@H](C(F)(F)F)CC3)c(C(F)(F)F)c2c1)N1C2CCC1CC(C(=O)O)C2 (stereo partly drawn) [Example 12, 8-{1-[7-(cis-4-trifluoromethyl-cyclohexyloxy)-8-trifluoromethyl-naphthalen-2-yl]-ethyl}-8-aza-bicyclo[3.2.1]octane-3-carboxylic acid] | ≤ 100
C[C@@H](c1ccc2ccc(O[C@H]3CC[C@@H](C(F)(F)F)CC3)c(C(F)(F)F)c2c1)N1C2CCC1CC(C(=O)O)C2 (stereo partly drawn) [Example 12a, 8-{(S)-1-[7-(cis-4-trifluoromethyl-cyclohexyloxy)-8-trifluoromethyl-naphthalen-2-yl]-ethyl}-8-aza-bicyclo[3.2.1]octane-3-carboxylic acid] | ≤ 500
C[C@H](c1ccc2ccc(O[C@H]3CC[C@@H](C(F)(F)F)CC3)c(C(F)(F)F)c2c1)N1C2CCC1CC(C(=O)O)C2 (stereo partly drawn) [Example 12b, 8-{(R)-1-[7-(cis-4-trifluoromethyl-cyclohexyloxy)-8-trifluoromethyl-naphthalen-2-yl]-ethyl}-8-aza-bicyclo[3.2.1]octane-3-carboxylic acid] | ≤ 100
C[C@H]1CC[C@@H](Oc2ccc3ccc(C(=O)N4C5CCCC4CC(C(=O)O)C5)cc3c2C(F)(F)F)CC1 (stereo partly drawn) [Example 13, 9-[7-(4-methyl-cyclohexyloxy)-8-trifluoromethyl-naphthalene-2-carbonyl]-9-aza-bicyclo [3.3.1]nonane-3-carboxylic acid] | ≤ 500
O=C(O)C1CC2CCCC(C1)N2C(=O)c1ccc2ccc(O[C@H]3CC[C@@H](C(F)(F)F)CC3)c(C(F)(F)F)c2c1 (stereo partly drawn) [Example 14, 9-[8-trifluoromethyl-7-(4-trifluoromethyl-cyclohexyloxy)-naphthalene-2-carbonyl]-9-aza-bicyclo[3.3.1]nonane-3-carboxylic acid] | ≤ 100
C[C@H]1CC[C@@H](Oc2ccc3ccc(CN4C5CCCC4CC(C(=O)O)C5)cc3c2Cl)CC1 (stereo partly drawn) [Example 15, 9-[8-Chloro-7-(4-methyl-cyclohexyloxy)-naphthalen-2-ylmethyl]-9-aza-bicyclo[3.3.1]nonane-3-carboxylic acid] | ≤ 100
O=C(O)C1CC2CCC(C1)N2Cc1ccc2ccc(O[C@H]3CC[C@@H](C(F)(F)F)CC3)c(Cl)c2c1 (stereo partly drawn) [Example 26, 8-((8-chloro-7-((cis-4-(trifluoromethyl)cyclohexyl)oxy)naphthalen-2-yl)methyl)-8-azabicyclo[3.2.1]octane-3-carboxylic acid] | ≤ 250
O=C(O)C1CC2CCCC(C1)N2Cc1ccc2ccc(O[C@H]3CC[C@@H](C(F)(F)F)CC3)c(Cl)c2c1 (stereo partly drawn) [Example 27, 9-((8-chloro-7-((cis-4-(trifluoromethyl)cyclohexyl)oxy)naphthalen-2-yl)methyl)-9-azabicyclo[3.3.1]nonane-3-carboxylic acid] | ≤ 100
CC(c1ccc2ccc(O[C@H]3CC[C@@H](C(F)(F)F)CC3)c(Cl)c2c1)N1C2CCC1CC(C(=O)O)C2 (stereo partly drawn) [Example 29, 8-(1-(8-chloro-7-((cis-4-(trifluoromethyl)cyclohexyl)oxy)naphthalen-2-yl)ethyl)-8-azabicyclo[3.2.1]octane-3-carboxylic acid] | ≤ 250
CC(c1ccc2ccc(O[C@H]3CC[C@@H](C(F)(F)F)CC3)c(Cl)c2c1)N1C2CCCC1CC(C(=O)O)C2 (stereo partly drawn) [Example 30, 9-(1-(8-chloro-7-((cis-4-(trifluoromethyl)cyclohexyl)oxy)naphthalen-2-yl)ethyl)-9-azabicyclo[3.3.1]nonane-3-carboxylic acid] | ≤ 250

From patent US10017506B2, “ATX modulating agents” (BIOGEN MA INC., priority 2012, dated 2018)
